Experimental data reported in patent US12630547B2, “RAS protein degraders, pharmaceutical compositions thereof, and their therapeutic applications” (BioTheryX, Inc., priority 2019, dated 2026).

Experiments:
Type in all cases: cell-based
H23 cells = assay: Cell viability assay (CELLTITER-GLO), H23 cells; conditions: Table 4; 3 days
Experimental: (§1) MOLM-13 cells, MV-4-11 cells, H23, and H358 cells were independently cultured in RPMI 1640 media supplemented with 10% fetal bovine serum, streptomycin and penicillin. The cells were plated in white walled 96-well plates at 4,000 cells/well. The cells were incubated in DMSO (control) or a compound for 3 days at 37° C. under 5% CO2. A CELLTITER-GLO® reagent (100 μL) was then added to each well. After a 10 min incubation with shaking, luminescence was measured using an ENVISION® multimode plate reader.
(§2) IC50 values are summarized in Table 4, where “A” represents an IC50 value of no greater than 1 μM, “B” represents an IC50 value of greater than 1 μM and no greater than 5 μM, “C” represents an IC50 value of greater than 5 μM and no greater than 10 μM, and “D” represents an IC50 value of greater than 10 μM.

MOLM-13 cells = assay: Cell viability assay (CELLTITER-GLO), MOLM-13 cells; conditions: Homo sapiens, MOLM-13, 72 h; Table 2; compound at 10 μM, 3 days; read-out: Effect on MOLM-13 cell viability (% DMSO)
Experimental: as §1
In Tables 1 and 2, each compound was tested at 10 μM; and in Table 3, each compound was tested at 1 μM. In Tables 1 to 3, the cell viability values as % DMSO are reported as “A,” “B,” “C,” or “D;” where “A” represents a % viability value of less than 10%; “B” represents a % viability value of no less than 10% and less than 25%; “C” represents a % viability value of no less than 25% and less than 50%; and “D” represents a % viability value of no less than 50%. Compound A is […]

H358 cells = assay: Cell viability assay (CELLTITER-GLO), H358 cells; conditions: Table 4; 3 days
Experimental: as §1
In Tables 1 and 2, each compound was tested at 10 μM; and in Table 3, each compound was tested at 1 μM. In Tables 1 to 3, the cell viability values as % DMSO are reported as “A,” “B,” “C,” or “D;” where “A” represents a % viability value of less than 10%; “B” represents a % viability value of no less than 10% and less than 25%; “C” represents a % viability value of no less than 25% and less than 50%; and “D” represents a % viability value of no less than 50%. Compound A is
as §2

SMILES | Inhibition of H23 cells, IC50 (class) (H23 cells) | viability at 10 µM (MOLM-13 cells) [%] | Inhibition of H358 cells, IC50 (class) (H358 cells)
CCC(=O)N1CCN(c2ncnc3c(Cl)c(-c4c(F)cccc4OCCCCCCCCN4CCC(c5cc(F)cc6c5CN(C5CCC(=O)NC5=O)C6=O)CC4)c(F)cc23)CC1 (stereo not drawn) [Compound 20, 3-(4-(1-(8-(2-(8-Chloro-6-fluoro-4-(4-propionylpiperazin-1-yl)quinazolin-7-yl)-3-fluorophenoxy)octyl)piperidin-4-yl)-6-fluoro-1-oxoisoindolin-2-yl)piperidine-2,6-dione] | B′ | < 10 | B′
C=CC(=O)N1CCN(c2ncnc3c(F)c(-c4c(F)cccc4OCCOCCOCCOCCNc4cccc5c4C(=O)N(C4CCC(=O)NC4=O)C5=O)c(Cl)cc23)CC1 (stereo not drawn) [Compound 23, 4-((2-(2-(2-(2-(2-(4-(4-Acryloylpiperazin-1-yl)-6-chloro-8-fluoroquinazolin-7-yl)-3-fluorophenoxy)ethoxy)ethoxy)ethoxy)ethyl)amino)-2-(2,6-dioxopiperidin-3-yl)isoindoline-1,3-dione] | B′ | < 10 | B′
CCC(=O)N1CCN(c2nc(OCCOCCOCCOCCNc3cccc4c3C(=O)N(C3CCC(=O)NC3=O)C4=O)nc3c2CCN(c2cccc4ccccc24)C3)C[C@H]1C (stereo partly drawn) [Compound 48, 2-(2,6-Dioxopiperidin-3-yl)-4-((2-(2-(2-(2-((4-((R)-3-methyl-4-propionylpiperazin-1-yl)-7-(naphthalen-1-yl)-5,6,7,8-tetrahydropyrido[3,4-d]pyrimidin-2-yl)oxy)ethoxy)ethoxy)ethoxy)ethyl)-amino)isoindoline-1,3-dione] | D′ |  | D′
CCC(=O)N1CCN(c2ncnc3c(Cl)c(-c4c(F)cccc4OCCCCCCCCN4CCC(c5cc(F)cc6c5CN(C5CCC(=O)NC5=O)C6=O)CC4)c(F)cc23)CC1 [Compound 49, 3-(4-(1-(8-((R)-2-(8-Chloro-6-fluoro-4-(4-propionylpiperazin-1-yl)quinazolin-7-yl)-3-fluorophenoxy)octyl)piperidin-4-yl)-6-fluoro-1-oxoisoindolin-2-yl)piperidine-2,6-dione] | B′ |  | B′
C=CC(=O)N1CCN(c2ncnc3c(F)c(-c4c(F)cccc4OCCCCCCC(=O)N[C@H](C(=O)N4C[C@H](O)C[C@H]4C(=O)NCc4ccc(-c5scnc5C)cc4)C(C)(C)C)c(Cl)cc23)CC1 [Compound 50, (2S,4R)-1-((2S)-2-(7-(2-(4-(4-Acryloylpiperazin-1-yl)-6-chloro-8-fluoroquinazolin-7-yl)-3-fluorophenoxy)heptanamido)-3,3-dimethylbutanoyl)-4-hydroxy-N-(4-(4-methylthiazol-5-yl)benzyl)pyrrolidine-2-carboxamide] | B′ |  | A′
O=C1CCC(N2Cc3c(cc(F)cc3C3CCN(CCCCCCCOc4cccc(F)c4-c4c(Cl)cc5c(N6CCN(C(=O)C7CCCC7)CC6)ncnc5c4F)CC3)C2=O)C(=O)N1 (stereo not drawn) [Compound 51, 3-(4-(1-(7-(2-(6-Chloro-4-(4-(cyclopentanecarbonyl)piperazin-1-yl)-8-fluoroquinazolin-7-yl)-3-fluorophenoxy)heptyl)piperidin-4-yl)-6-fluoro-1-oxoisoindolin-2-yl)piperidine-2,6-dione] | B′ |  | B′
O=C1CCC(N2Cc3c(cc(F)cc3C3CCN(CCCCCCCOc4cccc(F)c4-c4c(Cl)cc5c(N6CCN(C(=O)C7CCOCC7)CC6)ncnc5c4F)CC3)C2=O)C(=O)N1 (stereo not drawn) [Compound 52, 3-(4-(1-(7-(2-(6-Chloro-8-fluoro-4-(4-(tetrahydro-2H-pyran-4-carbonyl)piperazin-1-yl)quinazolin-7-yl)-3-fluorophenoxy)heptyl)piperidin-4-yl)-6-fluoro-1-oxoisoindolin-2-yl)piperidine-2,6-dione] | B′ |  | C′
O=C1CCC(N2Cc3c(cc(F)cc3C3CCN(CCCCCCCOc4cccc(F)c4-c4c(Cl)cc5c(N6CCN(C(=O)CC7CC7)CC6)ncnc5c4F)CC3)C2=O)C(=O)N1 (stereo not drawn) [Compound 53, 3-(4-(1-(7-(2-(6-Chloro-4-(4-(2-cyclopropylacetyl)piperazin-1-yl)-8-fluoroquinazolin-7-yl)-3-fluorophenoxy)heptyl)piperidin-4-yl)-6-fluoro-1-oxoisoindolin-2-yl)piperidine-2,6-dione] | B′ |  | B′
O=C1CCC(N2Cc3c(cc(F)cc3C3CCN(CCCCCCCOc4cccc(F)c4-c4c(Cl)cc5c(N6CCN(C(=O)C7CCOC7)CC6)ncnc5c4F)CC3)C2=O)C(=O)N1 (stereo not drawn) [Compound 54, 3-(4-(1-(7-(2-(6-Chloro-8-fluoro-4-(4-(tetrahydrofuran-3-carbonyl)piperazin-1-yl)quinazolin-7-yl)-3-fluorophenoxy)heptyl)piperidin-4-yl)-6-fluoro-1-oxoisoindolin-2-yl)piperidine-2,6-dione] | B′ |  | C′
CCC(=O)N1CCN(c2ncnc3c(F)c(-c4c(F)cccc4OCCCCCN4CCC(c5cc(F)cc6c5CN(C5CCC(=O)NC5=O)C6=O)CC4)c(Cl)cc23)CC1 (stereo not drawn) [Compound 60, 3-(4-(1-(5-(2-(6-Chloro-8-fluoro-4-(4-propionylpiperazin-1-yl)quinazolin-7-yl)-3-fluorophenoxy)pentyl)piperidin-4-yl)-6-fluoro-1-oxoisoindolin-2-yl)piperidine-2,6-dione] | C′ |  | D′
CCC(=O)N1CCN(c2nc(NCCC(=O)N(C)C)nc3c(F)c(-c4c(F)cccc4OCCCCCCCN4CCC(c5cc(F)cc6c5CN(C5CCC(=O)NC5=O)C6=O)CC4)c(Cl)cc23)CC1 (stereo not drawn) [Compound 86, 3-((6-Chloro-7-(2-((7-(4-(2-(2,6-dioxopiperidin-3-yl)-6-fluoro-1-oxoisoindolin-4-yl)piperidin-1-yl)heptyl)oxy)-6-fluorophenyl)-8-fluoro-4-(4-propionylpiperazin-1-yl)quinazolin-2-yl)amino)-N,N-dimethylpropanamide] | B′ |  | B′
C=C(Cl)C(=O)N1CCN(c2ncnc3c(F)c(-c4c(F)cccc4OCCCCCCCN4CCCC(c5cc(F)cc6c5CN(C5CCC(=O)NC5=O)C6=O)C4)c(Cl)cc23)CC1 (stereo not drawn) [Compound 106, 3-(4-(1-(7-(2-(6-Chloro-4-(4-(2-chloroacryloyl)piperazin-1-yl)-8-fluoroquinazolin-7-yl)-3-fluorophenoxy)heptyl)piperidin-3-yl)-6-fluoro-1-oxoisoindolin-2-yl)piperidine-2,6-dione] | A′ |  | A′
C=C(Cl)C(=O)N1CCN(c2ncnc3c(F)c(-c4c(F)cccc4OCCc4ccc(CCN5CCC(c6cc(F)cc7c6CN(C6CCC(=O)NC6=O)C7=O)CC5)cc4)c(Cl)cc23)C[C@H]1CC#N (stereo partly drawn) [Compound 131, 2-((2R)-4-(6-Chloro-7-(2-(4-(2-(4-(2-(2,6-dioxopiperidin-3-yl)-6-fluoro-1-oxoisoindolin-4-yl)piperidin-1-yl)ethyl)phenethoxy)-6-fluorophenyl)-8-fluoroquinazolin-4-yl)-1-(2-chloroacryloyl)piperazin-2-yl)acetonitrile] | A′ |  | A′
C=C(Cl)C(=O)N1CCN(c2nc(OC[C@@H]3CCCN3C)nc3c(F)c(-c4c(F)cccc4OCCCCCCCN4CCC(c5cc6c(cc5F)C(=O)N(C5CCC(=O)NC5=O)C6)CC4)c(Cl)cc23)C[C@H]1CC#N (stereo partly drawn) [Compound 132, 2-((2R)-4-(6-Chloro-7-(2-((7-(4-(2-(2,6-dioxopiperidin-3-yl)-6-fluoro-1-oxoisoindolin-5-yl)piperidin-1-yl)heptyl)oxy)-6-fluorophenyl)-8-fluoro-2-(((S)-1-methylpyrrolidin-2-yl)methoxy)quinazolin-4-yl)-1-(2-chloroacryloyl)piperazin-2-yl)acetonitrile] | B′ |  | B′
